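Dose response: 5 concentrations. Exposure: 48 h. Format: 96-well plates. Endpoint: linear interpolation; highest concentration if not reached. TGI is the concentration that stops growth completely.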
Legend:
Assay in all cases: NCI tumour cell line growth inhibition, 48 h
[1] = test system: 786-0 renal
[2] = test system: NCI-H226 lung
[3] = test system: MDA-N
[4] = test system: PC-3 prostate
[5] = test system: NCI-H522 lung
[6] = test system: COLO 205 colon
[7] = test system: HOP-92 NSCLC
[8] = test system: SK-MEL-28 melanoma
[9] = test system: NCI/ADR-RES ovarian
[10] = test system: HCT-15 colon
[11] = test system: MCF7 breast
[12] = test system: SF-539 CNS
[13] = test system: HL-60(TB) leukemia
[14] = test system: SN12C renal
[15] = test system: DU-145 prostate
[16] = test system: NCI-H23 lung
[17] = test system: MALME-3M melanoma
[18] = test system: LOX IMVI melanoma
[19] = test system: K-562 leukemia
[20] = test system: HCT-116 colon
[21] = test system: CAKI-1 renal
[22] = test system: OVCAR-5 ovarian
[23] = test system: HCC-2998 colon
[24] = test system: NCI-H460 lung
[25] = test system: TK-10 renal
[26] = test system: SNB-19 CNS
[27] = test system: IGROV1 ovarian
[28] = test system: A498 renal
[29] = test system: SK-MEL-2 melanoma
[30] = test system: OVCAR-8 ovarian
[31] = test system: ACHN renal
[32] = test system: KM12 colon
[33] = test system: UACC-62 melanoma
[34] = test system: RXF 393 renal
[35] = test system: UO-31 renal
[36] = test system: SF-268 CNS
[37] = test system: SR leukemia
[38] = test system: CCRF-CEM leukemia
[39] = test system: SW-620 colon
[40] = test system: M14 melanoma
[41] = test system: EKVX NSCLC
[42] = test system: UACC-257 melanoma
[43] = test system: MOLT-4 leukemia
[44] = test system: MDA-MB-435
[45] = test system: T-47D breast
[46] = test system: HS 578T breast
[47] = test system: A549 NSCLC
[48] = test system: SNB-75 CNS
[49] = test system: BT-549 breast
[50] = test system: MDA-MB-231 breast
[51] = test system: SK-OV-3 ovarian
[52] = test system: SF-295 CNS
[53] = test system: U251 CNS
[54] = test system: RPMI-8226 leukemia
[55] = test system: OVCAR-3 ovarian
[56] = test system: OVCAR-4 ovarian
[57] = test system: HT29 colon
[58] = test system: SK-MEL-5 melanoma
[59] = test system: HOP-62 NSCLC

Compound: Cc1ccc(C)c(COCCOCn2cc(N3CCOCC3)c(=O)[nH]c2=O)c1
- TGI [1]: > 100 µM
- TGI [2]: > 100 µM
- TGI [3]: > 100 µM
- TGI [4]: > 100 µM
- TGI [5]: > 100 µM
- TGI [6]: > 100 µM
- TGI [7]: > 100 µM
- TGI [8]: > 100 µM
- TGI [9]: > 100 µM
- TGI [10]: > 100 µM
- TGI [11]: > 100 µM
- TGI [12]: > 100 µM
- TGI [13]: > 100 µM
- TGI [14]: > 100 µM
- TGI [15]: > 100 µM
- TGI [16]: > 100 µM
- TGI [17]: > 100 µM
- TGI [18]: > 100 µM
- TGI [19]: > 100 µM
- TGI [20]: > 100 µM
- TGI [21]: > 100 µM
- TGI [22]: > 100 µM
- TGI [23]: > 100 µM
- TGI [24]: > 100 µM
- TGI [25]: > 100 µM
- TGI [26]: > 100 µM
- TGI [27]: > 100 µM
- TGI [28]: > 100 µM
- TGI [29]: > 100 µM
- TGI [30]: > 100 µM
- TGI [31]: > 100 µM
- TGI [32]: > 100 µM
- TGI [33]: > 100 µM
- TGI [34]: > 100 µM
- TGI [35]: > 100 µM
- TGI [36]: > 100 µM
- TGI [37]: > 100 µM
- TGI [38]: > 100 µM
- TGI [39]: > 100 µM
- TGI [40]: > 100 µM
- TGI [41]: > 100 µM
- TGI [42]: > 100 µM
- TGI [43]: > 100 µM
- TGI [44]: > 100 µM
- TGI [45]: > 100 µM
- TGI [46]: > 100 µM
- TGI [47]: > 100 µM
- TGI [48]: > 100 µM
- TGI [49]: > 100 µM
- TGI [50]: > 100 µM
- TGI [51]: > 100 µM
- TGI [52]: > 100 µM
- TGI [53]: > 100 µM

Compound: C[As+](C)(c1ccc(Br)c([N+](=O)[O-])c1)c1ccc(Br)c([N+](=O)[O-])c1.O=[N+]([O-])O
- TGI [1]: > 100 µM
- TGI [2]: > 100 µM
- TGI [54]: > 100 µM
- TGI [3]: > 100 µM
- TGI [4]: > 100 µM
- TGI [5]: > 100 µM
- TGI [6]: > 100 µM
- TGI [7]: > 100 µM
- TGI [8]: 76.8 µM
- TGI [9]: > 100 µM
- TGI [10]: > 100 µM
- TGI [11]: > 100 µM
- TGI [12]: > 100 µM
- TGI [14]: > 100 µM
- TGI [55]: > 100 µM
- TGI [15]: > 100 µM
- TGI [16]: > 100 µM
- TGI [56]: > 100 µM
- TGI [17]: 34.1 µM
- TGI [18]: > 100 µM
- TGI [19]: > 100 µM
- TGI [20]: > 100 µM
- TGI [21]: > 100 µM
- TGI [22]: > 100 µM
- TGI [23]: > 100 µM
- TGI [24]: > 100 µM
- TGI [25]: > 100 µM
- TGI [26]: > 100 µM
- TGI [27]: > 100 µM
- TGI [28]: > 100 µM
- TGI [29]: > 100 µM
- TGI [30]: > 100 µM
- TGI [31]: > 100 µM
- TGI [32]: > 100 µM
- TGI [33]: > 100 µM
- TGI [34]: > 100 µM
- TGI [35]: > 100 µM
- TGI [36]: > 100 µM
- TGI [57]: > 100 µM
- TGI [37]: > 100 µM
- TGI [39]: > 100 µM
- TGI [40]: > 100 µM
- TGI [41]: > 100 µM
- TGI [42]: > 100 µM
- TGI [43]: > 100 µM
- TGI [58]: 22 µM
- TGI [44]: > 100 µM
- TGI [45]: > 100 µM
- TGI [46]: > 100 µM
- TGI [47]: > 100 µM
- TGI [48]: > 100 µM
- TGI [49]: > 100 µM
- TGI [50]: > 100 µM
- TGI [59]: > 100 µM
- TGI [51]: > 100 µM
- TGI [52]: > 100 µM
- TGI [53]: > 100 µM

— PubChem BioAssay (NCI)
